# In patent US11492618B2, “Expression control using a regulatable intron” (ASKLEPIOS BIOPHARMACEUTICAL, INC., priority 2017, dated 2022):
# Tests used:
# HEK293-F cells = assay: Luciferase expression from UPR-inducible promoters with different minimal promoters after 2 mM DTT; type: cell-based, human
# Source text: The purpose of this experiment was to test the ATF6-containing UPR-responsive cis-regulatory element (also referred to herein as an enhancer) as used in the examples above with different minimal promoters and to further assess their inducibility and tightness of control. To this end, the ATF6-containing UPR-responsive cis-regulatory element was operably linked to the CMV-MP and MinTK (herpes thymidine kinase minimal promoter) minimal promoters The constructs were synthesised by GeneART by chemical synthesis, as above.
# As described above, the enhancer sequence contains 6 repeats of the sequence TGACGTGCT (which contains the ATF6 consensus sequence, TGACGTG) spaced by 20 bp spacer sequences. The enhancer sequence was coupled to either MinTK (in construct ATF06-MP001) or CMV-MP (in construct ATF06-MP002).
# Transfection of HEK293-F cells was performed as previously described. DTT was added at a concentration of 2 mM. Luciferase activity was measured as previously described. The results are shown in FIG. 17—the DTT was added at time=0 h as shown on the X-axis (units are hours).
# UPR = assay: Induction of UPR by candidate inducers, EGFP read-out from SYNP-ATF6-02; type: cell-based, human; conditions: HEK293F with SYNP-ATF6-02; DTT 2 mM, palmitate 0.5 mM, MF-43 1 μM; 0-24 hrs
# Procedure: Experiments were performed to assess the ability of several candidate agents to induce the UPR. The ability of these candidate inducers to induce UPR was assessed using the techniques essentially as described above. The additional candidates tested were 0.5 mM palmitic acid, 1 uM MF-43 (2-methyl-5-(6-(4-(2-(trifluoromethyl)phenoxy)piperidin-1-yl)pyridazin-3-yl)-1,3,4-thiadiazole), which is an inhibitor of stearoyl-CoA desaturase, and a combination of both of these (for the same concentrations of each was used).
# In these experiments transfections were done in 24-well plates as previously described. The SYNP-ATF6-02 plasmid (i.e. SYNP-ATF6-02 in pMA-RQ vector) was transfected into HEK293F cells and after 24 hrs GFP was measured. Induction of the UPR was then stimulated using the aforementioned inducers and samples were taken and measured at 0, 1, 3, 5 and 24 hrs after induction. GFP expression was measured as previously described. Results are the average of 3 individual experiments and the error bars represent the standard deviation.
# Experimental procedure in brief: • 40 ml of cells were grown in a 250 ml vented Erlenmeyer flask (Sigma-Aldrich CLS431144) at 37° C., 8% CO2 with agitation at 100 rpm. […]
# AAV production on induction of UPR: The ATF6 plasmid (i.e. SYNP-ATF6-02 in pMA-RQ vector) was transfected into HEK293 cells as previously described. 24 hrs later GFP was measured. […] EGFP fluorescence was then measured after 1, 3, 5 and 24 hrs. […]
# CHO cells = assay: SEAP activity from intron-containing SEAP construct after DTT induction; type: cell-based, Chinese hamster
# Procedure: (§1) Experiments were performed essentially as described in the above methods, namely, HEK or CHO-s cells were transfected with the aforementioned construct (pMA-RQ) and incubated for 24 hrs. After this time the activating compound DTT was added at 2 mM final concentration, SEAP activity was then measured at 3, 5 and 24 hrs post-induction.
# (§2) The protocol for transfection for 24 well plates was as described in Example 1. Thereafter: • Supernatant was measured for SEAP activity after 24 hrs. • Intron splicing from the SEAP construct was measured after addition of either 2 mM DTT by monitoring of SEAP activity after 3, 5 and 24 hrs. • SEAP activity was measured as per manufacturer's instructions, Roche, SEAP reporter gene assay kit, obtained from Sigma-Aldrich, Cat. No. 11 779 842 001.
# HEK293 cells [1] = assay: as above; type: cell-based, human
# Procedure: as §1, §2
# HEK293F cells = assay: EGFP fluorescence from regulatable-intron construct before and after UPR induction with 2 mM DTT; type: cell-based, human
# Procedure: (§3) The standard protocol for transfection of these cells was modified for 24 well plates as follows: • 40 ml of cells were grown in a 250 ml vented Erlenmeyer flask (Sigma-Aldrich CLS431144) at 37° C., 8% CO2 with agitation at 100 rpm. Cells were seeded as described in the manufacturer's instructions. • 1 day before transfection cells were counted using a haemocytometer and split to 500,000 cells/ml. • On the day of transfection cells are seeded to 1 million cells/ml in 500 μl of appropriate medium in a 24 well plate. • 0.625 μg of DNA/well was then added to 10 μl of OptiMem medium (Thermofisher; 11058021) and incubated for 5 minutes at room temperature. • Concurrently 0.625 μl of Max reagent was made up to 10 μl by addition of OptiMem and incubated for 5 minutes at room temperature. • After this incubation both mixes were added to the same tube and incubated at room temperature for 25-30 minutes. • The DNA/Max reagent mix (20 μl/well) was then added directly to the cells and the cells incubated as described previously. • Cells were then measured for GFP fluorescence after 24 hrs. • Intron splicing from the GFP construct was measured via addition of 2 mM DTT and monitoring of GFP fluorescence after 1 hr. DTT is a strong reducing agent which induces ER stress by disrupting the formation of disulphide bonds within the ER. […]
# CHO-S cells = assay: as above; type: cell-based, Chinese hamster
# Procedure: as §3
# HEK293 cells [2] = assay: Cell death (trypan blue) after induction of intron-controlled caspase 9; type: cell-based, human; conditions: HEK293 with SYNP-CASP9-INT, DTT 2 mM
# Procedure: Transfection was performed as previously described. DTT was added at 2 mM and forskolin was added at 10 μM. The latter was carried out to determine whether forskolin could induce the removal of the intron. Amongst other things, forskolin has potential gene therapy applications. Induction of intron removal was measured as function of cell death, with higher cell death an indicator of removal of the intron.
# Experiments were performed as described in the methods namely, HEK or CHO-s cells were transfected with the aforementioned construct and incubated for 24 h. After this time the activating compound DTT or Forskolin was added, % cell death was then measured at 3, 5 and 24 h post-induction.
# Induction of intron was measured as function of cell death, using the Countess II cell counter (Thermofisher). Cells were stained with trypan blue to ascertain cell viability. 10 μl of cell suspension was added to a Haemocytomer and analysed on the countess.
compound,measurement,setting,value
"ATF06-MP001: ATF6 enhancer (6 repeats, 20 bp spacers) coupled to MinTK driving luciferase (SEQ ID NO: 59)",inducibility of luciferase expression by DTT,HEK293-F cells; 2 mM DTT,good inducibility
same,luciferase expression after induction of the UPR versus CMV-IE promoter,HEK293-F cells; 2 mM DTT,significantly higher than provided by the constitutive CMV-IE promoter
same,luciferase expression prior to addition of DTT,HEK293-F cells; before 2 mM DTT,negligible expression
"CCCCCCCCCCCCCCCC(=O)O [palmitate, palmitic acid]",induction of UPR indicated by expression of functional EGFP,UPR,effectively induced the UPR
"SEAP-ATF6-001: SEAP expression construct with 6×ATF6 spaced by 20 bp, CMV-MP and regulatable intron (SEQ ID NO: 34)",SEAP expression after 24 h higher than CMV-IE,"CHO cells; 2 mM DTT, 24 h, CMV-IE shown in HEK293",~2 fold
same,SEAP expression before induction,CHO cells; no DTT,no SEAP expression
same,SEAP expression after 24 h higher than CMV-IE,"HEK293 cells [1]; HEK293, 2 mM DTT, 24 h",~2 fold
same,SEAP expression before induction,"HEK293 cells [1]; HEK293, no DTT",no SEAP expression
"SYNP-XBP-01: CMV-MP controlling expression of EGFP with XBP1 intron (SEQ ID NO: 28), in plasmid pMA-RQ",GFP production induced upon inducing ER-Stress,"HEK293F cells; 2 mM DTT, 1 hr after treatment, 3 independent experiments",4-10 fold
same,resultant GFP activity higher than the positive control,"HEK293F cells; after 2 mM DTT, control CMV-MP-GFP",2.5-7 fold
same,background GFP fluorescence before induction,"HEK293F cells; no DTT, versus control",considerably lower than the control
same,GFP fluorescence induced upon addition of 2 mM DTT,CHO-S cells; 2 mM DTT,> 1000 fold
same,background GFP fluorescence before induction,CHO-S cells; no DTT,no background at all
"Cc1nnc(-c2ccc(N3CCC(Oc4ccccc4C(F)(F)F)CC3)nn2)s1 [MF-43, 2-methyl-5-(6-(4-(2-(trifluoromethyl)phenoxy)piperidin-1-yl)pyridazin-3-yl)-1,3,4-thiadiazole]",induction of UPR indicated by expression of functional EGFP,UPR,effectively induced the UPR
"O[C@H](CS)[C@H](O)CS (racemic) [DTT, Dithiothreitol]",induction of UPR indicated by expression of functional EGFP,UPR,very potent inducer of the UPR
same,time after treatment at which % of dead cells is equal to the positive control,HEK293 cells [2],5 h
same,number of dead cells after 3 h,HEK293 cells [2]; 3 h,close to the control construct which contained no intron
